{"source": "patent US4312874A", "about": "“Antibacterial compounds, processes for their preparation and compositions containing them” (Beecham Group Limited, priority 1979, dated 1982)", "key": {"[1]": {"test_system": "M. suipneumoniae NCTC 10110", "experiment": "in vitro MIC by serial dilution in Friis modified agarose medium", "assay_type": "cell-based", "conditions": "Mesomycoplasma hyopneumoniae, NCTC10110; Table 3"}, "Sarcina lutea 8340": {"test_system": "Sarcina lutea 8340", "experiment": "MIC by serial dilution in nutrient agar with 5% chocolated horse blood", "assay_type": "cell-based", "conditions": "Micrococcus luteus, Table 1, read-out: MIC"}, "S. typhimurium S18": {"test_system": "S. typhimurium S18", "experiment": "MIC by agar dilution, veterinary bacteria", "conditions": "Salmonella enterica, 24 h"}, "Bacillus subtilis 6633": {"test_system": "Bacillus subtilis 6633", "experiment": "MIC by serial dilution in nutrient agar with 5% chocolated horse blood", "assay_type": "cell-based", "conditions": "Table 1"}, "Staph. aureus Oxford": {"test_system": "Staph. aureus Oxford", "experiment": "MIC by serial dilution in nutrient agar with 5% chocolated horse blood", "assay_type": "cell-based", "conditions": "Staphylococcus aureus; Table 1"}, "[2]": {"test_system": "Corynebacterium pyogenes CY1", "experiment": "MIC by agar dilution, veterinary bacteria", "conditions": "CY1, 24 h"}, "Past. multocida PA2": {"test_system": "Past. multocida PA2", "experiment": "MIC by agar dilution, veterinary bacteria", "conditions": "Pasteurella multocida, PA2, 24 h"}, "[3]": {"test_system": "Corynebacterium xerosis 9755", "experiment": "MIC by serial dilution in nutrient agar with 5% chocolated horse blood", "assay_type": "cell-based", "conditions": "Table 1"}, "M. gallisepticum S6": {"test_system": "M. gallisepticum S6", "experiment": "in vitro MIC by serial dilution in Friis modified agarose medium", "assay_type": "cell-based", "conditions": "Mycoplasmoides gallisepticum, Table 3"}, "[4]": {"experiment": "Serum binding by ultrafiltration", "assay_type": "in vitro ADME", "conditions": "pig, 8 mcg/ml, read-out: % Bound to Pig Serum (converted)", "protocol": "Serum binding was assessed by ultrafiltration of procine serum containing compounds at 8 mcg/ml, and through an Amicon CF50A ultrafiltration cone. Separation of ultrafiltrate was achieved by centrifugation. Unbound concentrations of compound were measured in the ultrafiltrate by microbiological assay (B. subtilis ATCC 6633) against standards prepared in saline."}, "Strep. dysgalactiae SPD1": {"test_system": "Strep. dysgalactiae SPD1", "experiment": "MIC by agar dilution, veterinary bacteria", "conditions": "Streptococcus dysgalactiae, SPD1, 24 h"}, "M. siupneumoniae HK(2)": {"test_system": "M. siupneumoniae HK(2)", "experiment": "in vitro MIC by serial dilution in Friis modified agarose medium", "assay_type": "cell-based", "conditions": "Table 3"}, "Past. haemolytica PA5": {"test_system": "Past. haemolytica PA5", "experiment": "MIC by agar dilution, veterinary bacteria", "conditions": "Mannheimia haemolytica, PA5, 24 h"}, "[5]": {"test_system": "Neisseria catarrhalis 1502", "experiment": "MIC by serial dilution in nutrient agar with 5% chocolated horse blood", "assay_type": "cell-based", "conditions": "Table 1, read-out: MIC"}, "Bord. bronchiseptica B08": {"test_system": "Bord. bronchiseptica B08", "experiment": "MIC by agar dilution, veterinary bacteria", "conditions": "Bordetella bronchiseptica, B08, 24 h"}, "[6]": {"test_system": "M. suipneumoniae J2206/183b", "experiment": "in vitro MIC by serial dilution in Friis modified agarose medium", "assay_type": "cell-based", "conditions": "Mesomycoplasma hyopneumoniae, Table 3"}, "E. coli NCTC 10418": {"test_system": "E. coli NCTC 10418", "experiment": "MIC by serial dilution in nutrient agar with 5% chocolated horse blood", "assay_type": "cell-based", "conditions": "Escherichia coli, NCTC10418; Table 1; read-out: MIC"}, "[7]": {"test_system": "Pasteurella multocida 1633", "experiment": "MIC by serial dilution in nutrient agar with 5% chocolated horse blood", "assay_type": "cell-based", "conditions": "Table 1"}, "M. suipneumoniae JF 435": {"test_system": "M. suipneumoniae JF 435", "experiment": "in vitro MIC by serial dilution in Friis modified agarose medium", "assay_type": "cell-based", "conditions": "Mesomycoplasma hyopneumoniae, JF435; Table 3"}, "Strep. faecalis": {"test_system": "Strep. faecalis", "experiment": "MIC by serial dilution in nutrient agar with 5% chocolated horse blood", "assay_type": "cell-based", "conditions": "Enterococcus faecalis; Table 1; read-out: MIC"}, "[8]": {"test_system": "M. suipneumoniae PW/C/210", "experiment": "in vitro MIC by serial dilution in Friis modified agarose medium", "assay_type": "cell-based", "conditions": "Mesomycoplasma hyopneumoniae; Table 3"}, "Ps. aeruginosa 10662": {"test_system": "Ps. aeruginosa 10662", "experiment": "MIC by serial dilution in nutrient agar with 5% chocolated horse blood", "assay_type": "cell-based", "conditions": "Pseudomonas aeruginosa, Table 1, read-out: MIC"}, "[9]": {"test_system": "Erysipelothrix rhusiopathiae NCTC 8163", "experiment": "MIC by agar dilution, veterinary bacteria", "conditions": "NCTC8163, 24 h"}, "[10]": {"test_system": "Haemophilus influenzae Q1", "experiment": "MIC by serial dilution in nutrient agar with 5% chocolated horse blood", "assay_type": "cell-based", "conditions": "Table 1"}, "Strep. agalactiae SPA1": {"test_system": "Strep. agalactiae SPA1", "experiment": "MIC by agar dilution, veterinary bacteria", "conditions": "Streptococcus agalactiae, SPA1, 24 h"}, "M. hyosnoviae ATCC 25591": {"test_system": "M. hyosnoviae ATCC 25591", "experiment": "in vitro MIC by serial dilution in Friis modified agarose medium", "assay_type": "cell-based", "conditions": "Table 3"}, "S.dublin S7": {"test_system": "S.dublin S7", "experiment": "MIC by agar dilution, veterinary bacteria", "conditions": "Salmonella enterica, S7, 24 h"}, "M. suipneumoniae MS 16": {"test_system": "M. suipneumoniae MS 16", "experiment": "in vitro MIC by serial dilution in Friis modified agarose medium", "assay_type": "cell-based", "conditions": "Mesomycoplasma hyopneumoniae, MS16; Table 3"}, "Strep. uberis SPU1": {"test_system": "Strep. uberis SPU1", "experiment": "MIC by agar dilution, veterinary bacteria", "conditions": "Streptococcus uberis, SPU1, 24 h"}, "M. suipneumoniae UCD 1": {"test_system": "M. suipneumoniae UCD 1", "experiment": "in vitro MIC by serial dilution in Friis modified agarose medium", "assay_type": "cell-based", "conditions": "Mesomycoplasma hyopneumoniae, UCD1; Table 3"}, "M. suipneumoniae LABER": {"test_system": "M. suipneumoniae LABER", "experiment": "in vitro MIC by serial dilution in Friis modified agarose medium", "assay_type": "cell-based", "conditions": "Mesomycoplasma hyopneumoniae; Table 3"}, "K. aerogenes A": {"test_system": "K. aerogenes A", "experiment": "MIC by serial dilution in nutrient agar with 5% chocolated horse blood", "assay_type": "cell-based", "conditions": "Klebsiella aerogenes; Table 1; read-out: MIC"}, "M.suipneumoniae NB12": {"test_system": "M.suipneumoniae NB12", "experiment": "in vitro MIC by serial dilution in Friis modified agarose medium", "assay_type": "cell-based", "conditions": "Mesomycoplasma hyopneumoniae, Table 3"}, "[11]": {"test_system": "Haemophilus influenzae Wy21", "experiment": "MIC by serial dilution in nutrient agar with 5% chocolated horse blood", "assay_type": "cell-based", "conditions": "Table 1, read-out: MIC"}, "M. suipneumoniae Str. 11": {"test_system": "M. suipneumoniae Str. 11", "experiment": "in vitro MIC by serial dilution in Friis modified agarose medium", "assay_type": "cell-based", "conditions": "Mesomycoplasma hyopneumoniae, Table 3"}, "[12]": {"test_system": "Staph. aureus B4 (pen resis)", "experiment": "MIC by agar dilution, veterinary bacteria", "conditions": "Staphylococcus aureus, 24 h"}, "Bord. bronchiseptica B09": {"test_system": "Bord. bronchiseptica B09", "experiment": "MIC by agar dilution, veterinary bacteria", "conditions": "Bordetella bronchiseptica, B09, 24 h"}, "E. coli E1": {"test_system": "E. coli E1", "experiment": "MIC by agar dilution, veterinary bacteria", "conditions": "Escherichia coli, E1, 24 h"}, "Staph. aureus Russell": {"test_system": "Staph. aureus Russell", "experiment": "MIC by serial dilution in nutrient agar with 5% chocolated horse blood", "assay_type": "cell-based", "conditions": "Staphylococcus aureus; Table 1"}, "Strep. pneumoniae CN33": {"test_system": "Strep. pneumoniae CN33", "experiment": "MIC by serial dilution in nutrient agar with 5% chocolated horse blood", "assay_type": "cell-based", "conditions": "Streptococcus pneumoniae, Table 1"}, "M. pneumoniae ATCC 15492": {"test_system": "M. pneumoniae ATCC 15492", "experiment": "in vitro MIC by serial dilution in Friis modified agarose medium", "assay_type": "cell-based", "conditions": "Mycoplasmoides pneumoniae, ATCC15492; Table 3"}}, "data": [{"smiles": "CCCCC(=O)C=C(C)CC1OCC(CC2OC2C(C)C(C)O)C(O)C1O", "note": "[Example 3, 1-[3R,4R-Dihydroxy-5S-(2S,3S-epoxy-5S-hydroxy-4S-methylhexyl)tetrahydropyran-2S-yl]-2-methyloct-2E-en-4-one]", "values": [{"measurement": "MIC", "setting": "[1]", "value": 1, "unit": "mg/L"}, {"measurement": "MIC", "setting": "Sarcina lutea 8340", "value": "> 100", "unit": "mg/L"}, {"measurement": "MIC", "setting": "S. typhimurium S18", "value": "> 80", "unit": "mg/L"}, {"measurement": "MIC", "setting": "Bacillus subtilis 6633", "value": 0.5, "unit": "mg/L"}, {"measurement": "MIC", "setting": "Staph. aureus Oxford", "value": 1, "unit": "mg/L"}, {"measurement": "MIC", "setting": "[2]", "value": "> 80", "unit": "mg/L"}, {"measurement": "MIC", "setting": "Past. multocida PA2", "value": 1.25, "unit": "mg/L"}, {"measurement": "MIC", "setting": "[3]", "value": 100, "unit": "mg/L"}, {"measurement": "MIC", "setting": "M. gallisepticum S6", "value": "> 10", "unit": "mg/L"}, {"measurement": "fraction unbound", "setting": "[4]", "value": 0.469}, {"measurement": "MIC", "setting": "Strep. dysgalactiae SPD1", "value": 10, "unit": "mg/L"}, {"measurement": "MIC", "setting": "M. siupneumoniae HK(2)", "value": 1, "unit": "mg/L"}, {"measurement": "MIC", "setting": "Past. haemolytica PA5", "value": 20, "unit": "mg/L"}, {"measurement": "MIC", "setting": "[5]", "value": 0.5, "unit": "mg/L"}, {"measurement": "MIC", "setting": "Bord. bronchiseptica B08", "value": "> 80", "unit": "mg/L"}, {"measurement": "MIC", "setting": "[6]", "value": 1, "unit": "mg/L"}, {"measurement": "MIC", "setting": "E. coli NCTC 10418", "value": "> 100", "unit": "mg/L"}, {"measurement": "MIC", "setting": "[7]", "value": 0.5, "unit": "mg/L"}, {"measurement": "MIC", "setting": "M. suipneumoniae JF 435", "value": 1, "unit": "mg/L"}, {"measurement": "MIC", "setting": "Strep. faecalis", "value": "> 100", "unit": "mg/L"}, {"measurement": "MIC", "setting": "[8]", "value": 0.5, "unit": "mg/L"}, {"measurement": "MIC", "setting": "Ps. aeruginosa 10662", "value": "> 100", "unit": "mg/L"}, {"measurement": "MIC", "setting": "[9]", "value": "> 80", "unit": "mg/L"}, {"measurement": "MIC", "setting": "[10]", "value": 0.2, "unit": "mg/L"}, {"measurement": "MIC", "setting": "Strep. agalactiae SPA1", "value": 10, "unit": "mg/L"}, {"measurement": "MIC", "setting": "M. hyosnoviae ATCC 25591", "value": 0.25, "unit": "mg/L"}, {"measurement": "MIC", "setting": "S.dublin S7", "value": "> 80", "unit": "mg/L"}, {"measurement": "MIC", "setting": "M. suipneumoniae MS 16", "value": 0.5, "unit": "mg/L"}, {"measurement": "MIC", "setting": "Strep. uberis SPU1", "value": 2.5, "unit": "mg/L"}, {"measurement": "MIC", "setting": "M. suipneumoniae UCD 1", "value": 1, "unit": "mg/L"}, {"measurement": "MIC", "setting": "M. suipneumoniae LABER", "value": 0.5, "unit": "mg/L"}, {"measurement": "MIC", "setting": "K. aerogenes A", "value": "> 100", "unit": "mg/L"}, {"measurement": "MIC", "setting": "M.suipneumoniae NB12", "value": 1, "unit": "mg/L"}, {"measurement": "MIC", "setting": "[11]", "value": 0.2, "unit": "mg/L"}, {"measurement": "MIC", "setting": "M. suipneumoniae Str. 11", "value": 0.5, "unit": "mg/L"}, {"measurement": "MIC", "setting": "[12]", "value": 2.5, "unit": "mg/L"}, {"measurement": "MIC", "setting": "Bord. bronchiseptica B09", "value": 40, "unit": "mg/L"}, {"measurement": "MIC", "setting": "E. coli E1", "value": "> 80", "unit": "mg/L"}, {"measurement": "MIC", "setting": "Staph. aureus Russell", "value": 1, "unit": "mg/L"}, {"measurement": "MIC", "setting": "Strep. pneumoniae CN33", "value": 5, "unit": "mg/L"}, {"measurement": "MIC", "setting": "M. pneumoniae ATCC 15492", "value": 10, "unit": "mg/L"}]}]}
